# Entries after “also recorded” stand apart in the source; their conditions may differ.
# T1: DhdR (Achromobacter denitrificans NBRC 15125)
# T1 chain: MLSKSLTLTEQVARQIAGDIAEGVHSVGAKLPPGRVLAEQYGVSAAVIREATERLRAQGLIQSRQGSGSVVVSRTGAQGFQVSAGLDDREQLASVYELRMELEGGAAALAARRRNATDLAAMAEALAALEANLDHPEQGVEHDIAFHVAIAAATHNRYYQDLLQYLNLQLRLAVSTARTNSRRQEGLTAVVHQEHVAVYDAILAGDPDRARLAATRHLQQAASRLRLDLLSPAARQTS
# What was measured:
# [1] = test system: binding of DhdR to dhdO; test: Analysis of DhdR effector by electrophoretic mobility shift assays; set-up: species or system Achromobacter denitrificans NBRC 15125; settings: 40 mM compound, 70 nM DhdR, dhdO target DNA, EMSA, FIG. 2
# Experimental: DhdR is incubated with different compounds (D-2-HG, L-2-HG, D-malate, D-lactate, glutarate, 2-ketoglutarate, or pyruvate) respectively. Then, the target DNA fragment dhdO is added. The influence on the binding capacity of DhdR and the target DNA fragment dhdO in the presence of the different compounds is analyzed through electrophoresis separation, staining, and imaging.
# (§1) The dhdO nucleotide fragment obtained in step (2) above was diluted to 100 nM using binding buffer, and the purified DhdR protein was diluted to 2000 nM. 70 nM purified DhdR protein was first incubated with 40 mM different compounds (D-2-HG, L-2-HG, D-malate, D-lactate, glutarate, 2-ketoglutarate, or pyruvate) at 30° C. for 15 minutes in 18 μL binding buffer. Subsequently, 2 μL of 100 nM dhdO was added and incubated at 30° C. for another 30 min. 10 μL of the sample was analyzed by electrophoresis with 6% native polyacrylamide at 170 V for 45 min on ice. The gel was then stained with SYBR Green I for 30 min avoiding light and photographed by gel imager. […] DhdR can bind to dhdO in the absence of D-2-HG. However, when D-2-HG is present, DhdR will be dissociated from dhdO.
# [2] = target: T1, DhdR; test: EMSA; 70 nM DhdR, 10 nM dhdO, 30 C; 40 mM D-2-HG inhibits binding; L-2-HG, D-malate, D-lactate, glutarate, 2-ketoglutarate, pyruvate do not; settings: tags: His6 (pETDuet-1, E. coli BL21(DE3))
# Experimental: as §1
# [3] = target: T1, DhdR; test: AlphaScreen-type bead luminescence, HBS-P pH 7.4; D-2-HG dissociates complex, LOD 0.08 uM, range about 0.3-20 uM; settings: tags: His6 (pETDuet-1, E. coli BL21(DE3)); label: 5'-biotin
# Experimental: 5 μL biotinylated dhdO-1 fragment, 5 μL DhdR protein and 5 μL solution containing D-2-HG were added into a white 384-well plate, mixed evenly by the oscillation function of a microplate reader, and incubated in dark at room temperature for 30 minutes. Then, 5 μL acceptor beads (20 μg/mL) were added and incubated in dark at room temperature for 30 minutes. Finally, 5 μL donor beads (20 μg/mL) were added and incubated in dark at room temperature for 60 minutes. The luminescence signal was measured by EnSight Multimode Plate Reader. The excitation wavelength was 680 nm and the detection wavelength was 520-620 nm. The background signal without a D-2-HG biosensor was deducted at each emission wavelength.
# (§2) According to the method of detecting the luminescence signal described in (2), a gradient D-2-HG solution dissolved in HBS-P buffer was used and mixed with 5 μL of 1 nM biotinylated dhdO-1 fragment, 0.3 nM DhdR protein, donor beads, and acceptor beads. The luminescence signal was detected to plot the dose-response curves.
# [4] = target: T1, DhdR; test: AlphaScreen-type bead luminescence, HBS-P pH 7.4; D-2-HG dissociates complex, LOD 0.8 uM, range about 2-50 uM; settings: tags: His6 (pETDuet-1, E. coli BL21(DE3)); label: 5'-biotin
# Experimental: as §2, with “dhdO” for “dhdO-1”
# The combination of the 1 nM biotinylated dhdO fragment, 0.3 nM DhdR protein, 20 μg/mL donor beads, and 20 μg/mL acceptor beads was named as D-2-HG biosensor BD2HG-0, with a limit of detection of 0.8 μM and a detection range of about 2-50 μM.
Molecule,effect on the binding of DhdR to dhdO [1],further results
O=C(O)C[C@@H](O)C(=O)O [D-malate],could not interfere with the binding of DhdR to dhdO,–
"O=C(O)CC[C@@H](O)C(=O)O [D-2-HG, D-2-Hydroxyglutarate]",prevents the binding of DhdR and the target DNA fragment dhdO; also recorded: could inhibit the binding of DhdR to dhdO,–
C[C@@H](O)C(=O)O [D-lactate],could not interfere with the binding of DhdR to dhdO,–
O=C(O)CCC(=O)C(=O)O [2-ketoglutarate],could not interfere with the binding of DhdR to dhdO,–
"O=C(O)CC[C@H](O)C(=O)O [L-2-HG, L-2-hydroxyglutarate]",could not interfere with the binding of DhdR to dhdO,–
dhdO (dsDNA) DNA 1: GAGTCGCGGCGGCGCGCCGGATCCGGGCTGTCATTGTCAAAAGTTATCAGATAACCTGAAAAGTAGGCCTATAATCGGCGC DNA 2: GCGCCGATTATAGGCCTACTTTTCAGGTTATCTGATAACTTTTGACAATGACAGCCCGGATCCGGCGCGCCGCCGCGACTC,–,binding result [2]: binds
biotinylated dhdO-1 (dsDNA) DNA 1: GAGTCGCGGCGGCGCGCCGGATCCGGGCTGTCATTGTCAAAATTTATCAGATAACCTGAAAAGTAGGCCTATAATCGGCGC DNA 2: GCGCCGATTATAGGCCTACTTTTCAGGTTATCTGATAAATTTTGACAATGACAGCCCGGATCCGGCGCGCCGCCGCGACTC,–,binding result [3]: binds
biotinylated dhdO (dsDNA) DNA 1: GAGTCGCGGCGGCGCGCCGGATCCGGGCTGTCATTGTCAAAAGTTATCAGATAACCTGAAAAGTAGGCCTATAATCGGCGC DNA 2: GCGCCGATTATAGGCCTACTTTTCAGGTTATCTGATAACTTTTGACAATGACAGCCCGGATCCGGCGCGCCGCCGCGACTC,–,binding result [4]: binds

# From patent publication US20240077423A1, “A TRANSCRIPTIONAL REGULATOR SPECIFICALLY RESPONDING TO D-2-HYDROXYGLUTARATE AND APPLICATION THEREOF” (SHANDONG UNIVERSITY, priority 2021, published 2024)
